Data reported in ChEMBL document CHEMBL3885881, “DrugMatrix”.

Species on record: Rattus norvegicus
Test: DrugMatrix - Regimen: Daily Repeat
Format: toxicity, organism-based, Sprague-Dawley
Design: regimen Daily Repeat, gender Male, age 6-8 weeks
Settings: in vivo, iv, vehicle 100 % SALINE; for ABSOLUTE BASOPHIL / ABSOLUTE EOSINOPHIL / ABSOLUTE LYMPHOCYTE / ABSOLUTE MONOCYTE / ABSOLUTE SEGMENTED NEUTROPHIL / BASOPHIL / EOSINOPHIL / ERYTHROCYTE COUNT / HEMATOCRIT / HEMOGLOBIN / LEUKOCYTE COUNT / LYMPHOCYTE / MEAN CORPUSCULAR HEMOGLOBIN / MEAN CORPUSCULAR HEMOGLOBIN CONCENTRATION / MEAN CORPUSCULAR VOLUME / MONOCYTE / NEUTROPHIL / NUCLEATED RED BLOOD CELLS / PLATELET COUNT: tissue Blood; for ALANINE AMINOTRANSFERASE / ALBUMIN / ALKALINE PHOSPHATASE / ASPARTATE AMINOTRANSFERASE / BLOOD UREA NITROGEN / CARBON DIOXIDE / CHLORIDE / CHOLESTEROL / CREATINE PHOSPHOKINASE / CREATININE / GLUCOSE / LACTATE DEHYDROGENASE / LIPASE / PHOSPHORUS / POTASSIUM / SODIUM / TOTAL BILIRUBIN / TOTAL PROTEIN / URIC ACID: tissue Plasma
[1] = 2 mg/kg, 72 h, dose level High, time 3 day
[2] = 2 mg/kg, 120 h, dose level High, time 5 day
[3] = […], 72 h, dose 0.21 mg/Kg, dose level Low, time 3 day
[4] = […], 120 h, dose 0.21 mg/Kg, dose level Low, time 5 day

SMILES: O=C1c2c(O)ccc(O)c2C(=O)c2c(NCCNCCO)ccc(NCCNCCO)c21 [MITOXANTRONE]
- ABSOLUTE BASOPHIL [1]: 0 CELLS/uL
- ABSOLUTE EOSINOPHIL [1]: 0 CELLS/uL
- ABSOLUTE LYMPHOCYTE [1]: 1529.67 CELLS/uL
- ABSOLUTE MONOCYTE [1]: 0 CELLS/uL
- ABSOLUTE SEGMENTED NEUTROPHIL [1]: 137 CELLS/uL
- BASOPHIL [1]: 0%
- EOSINOPHIL [1]: 0%
- ERYTHROCYTE COUNT [1]: 5.38 x10E6/uL
- HEMATOCRIT [1]: 34.37%
- HEMOGLOBIN [1]: 12.83 G/DL
- LEUKOCYTE COUNT [1]: 1.67 x10E3/uL
- LYMPHOCYTE [1]: 91.67%
- MEAN CORPUSCULAR HEMOGLOBIN [1]: 23.9 pg
- MEAN CORPUSCULAR HEMOGLOBIN CONCENTRATION [1]: 37.37 G/DL
- MEAN CORPUSCULAR VOLUME [1]: 63.87 fL
- MONOCYTE [1]: 0%
- NEUTROPHIL [1]: 8.33%
- NUCLEATED RED BLOOD CELLS [1]: 0 /100WBC
- PLATELET COUNT [1]: 1484 x10E3/uL
- ALANINE AMINOTRANSFERASE [1]: 42.67 u/L
- ALBUMIN [1]: 4.43 G/DL
- ALKALINE PHOSPHATASE [1]: 444 u/L
- ASPARTATE AMINOTRANSFERASE [1]: 64 u/L
- BLOOD UREA NITROGEN [1]: 15.67 mg/dL
- CARBON DIOXIDE [1]: 23 mmol/L
- CHLORIDE [1]: 104.67 MEQ/L
- CHOLESTEROL [1]: 79.33 mg/dL
- CREATINE PHOSPHOKINASE [1]: 220.67 u/L
- CREATININE [1]: 0.17 mg/dL
- GLUCOSE [1]: 180.33 mg/dL
- LACTATE DEHYDROGENASE [1]: 145 u/L
- LIPASE [1]: 10 u/L
- PHOSPHORUS [1]: 12.2 mg/dL
- POTASSIUM [1]: 5.98 MEQ/L
- SODIUM [1]: 146.2 MEQ/L
- TOTAL BILIRUBIN [1]: 0.13 mg/dL
- TOTAL PROTEIN [1]: 6.1 G/DL
- URIC ACID [1]: 2.67 mg/dL
- ABSOLUTE BASOPHIL [2]: 0 CELLS/uL
- ABSOLUTE EOSINOPHIL [2]: 0 CELLS/uL
- ABSOLUTE LYMPHOCYTE [2]: 1225 CELLS/uL
- ABSOLUTE MONOCYTE [2]: 0 CELLS/uL
- ABSOLUTE SEGMENTED NEUTROPHIL [2]: 8.33 CELLS/uL
- BASOPHIL [2]: 0%
- EOSINOPHIL [2]: 0%
- ERYTHROCYTE COUNT [2]: 5.82 x10E6/uL
- HEMATOCRIT [2]: 35.23%
- HEMOGLOBIN [2]: 13.37 G/DL
- LEUKOCYTE COUNT [2]: 1.23 x10E3/uL
- LYMPHOCYTE [2]: 99.33%
- MEAN CORPUSCULAR HEMOGLOBIN [2]: 23.07 pg
- MEAN CORPUSCULAR HEMOGLOBIN CONCENTRATION [2]: 37.97 G/DL
- MEAN CORPUSCULAR VOLUME [2]: 60.73 fL
- MONOCYTE [2]: 0%
- NEUTROPHIL [2]: 0.67%
- NUCLEATED RED BLOOD CELLS [2]: 0 /100WBC
- PLATELET COUNT [2]: 946 x10E3/uL
- ALANINE AMINOTRANSFERASE [2]: 32.33 u/L
- ALBUMIN [2]: 3.37 G/DL
- ALKALINE PHOSPHATASE [2]: 255.33 u/L
- ASPARTATE AMINOTRANSFERASE [2]: 47.67 u/L
- BLOOD UREA NITROGEN [2]: 15.67 mg/dL
- CARBON DIOXIDE [2]: 29.33 mmol/L
- CHLORIDE [2]: 105 MEQ/L
- CHOLESTEROL [2]: 107 mg/dL
- CREATINE PHOSPHOKINASE [2]: 271.67 u/L
- CREATININE [2]: 0.12 mg/dL
- GLUCOSE [2]: 142.33 mg/dL
- LACTATE DEHYDROGENASE [2]: 141.33 u/L
- LIPASE [2]: 9.67 u/L
- PHOSPHORUS [2]: 11.97 mg/dL
- POTASSIUM [2]: 6.74 MEQ/L
- SODIUM [2]: 146.57 MEQ/L
- TOTAL BILIRUBIN [2]: 0.1 mg/dL
- TOTAL PROTEIN [2]: 5.2 G/DL
- URIC ACID [2]: 1.33 mg/dL
- ABSOLUTE BASOPHIL [3]: 0 CELLS/uL
- ABSOLUTE EOSINOPHIL [3]: 34.67 CELLS/uL
- ABSOLUTE LYMPHOCYTE [3]: 7414.67 CELLS/uL
- ABSOLUTE MONOCYTE [3]: 92.67 CELLS/uL
- ABSOLUTE SEGMENTED NEUTROPHIL [3]: 224.67 CELLS/uL
- BASOPHIL [3]: 0%
- EOSINOPHIL [3]: 0.33%
- ERYTHROCYTE COUNT [3]: 5.52 x10E6/uL
- HEMATOCRIT [3]: 34.13%
- HEMOGLOBIN [3]: 12.87 G/DL
- LEUKOCYTE COUNT [3]: 7.77 x10E3/uL
- LYMPHOCYTE [3]: 96%
- MEAN CORPUSCULAR HEMOGLOBIN [3]: 23.37 pg
- MEAN CORPUSCULAR HEMOGLOBIN CONCENTRATION [3]: 37.73 G/DL
- MEAN CORPUSCULAR VOLUME [3]: 61.87 fL
- MONOCYTE [3]: 1%
- NEUTROPHIL [3]: 2.67%
- NUCLEATED RED BLOOD CELLS [3]: 0 /100WBC
- PLATELET COUNT [3]: 1537 x10E3/uL
- ALANINE AMINOTRANSFERASE [3]: 46 u/L
- ALBUMIN [3]: 4.5 G/DL
- ALKALINE PHOSPHATASE [3]: 370.67 u/L
- ASPARTATE AMINOTRANSFERASE [3]: 75 u/L
- BLOOD UREA NITROGEN [3]: 14.33 mg/dL
- CARBON DIOXIDE [3]: 24 mmol/L
- CHLORIDE [3]: 103.33 MEQ/L
- CHOLESTEROL [3]: 77.33 mg/dL
- CREATINE PHOSPHOKINASE [3]: 192 u/L
- CREATININE [3]: 0.24 mg/dL
- GLUCOSE [3]: 163 mg/dL
- LACTATE DEHYDROGENASE [3]: 207.67 u/L
- LIPASE [3]: 9.67 u/L
- PHOSPHORUS [3]: 13.57 mg/dL
- POTASSIUM [3]: 7.01 MEQ/L
- SODIUM [3]: 145.1 MEQ/L
- TOTAL BILIRUBIN [3]: 0.23 mg/dL
- TOTAL PROTEIN [3]: 6.23 G/DL
- URIC ACID [3]: 2.6 mg/dL
- ABSOLUTE BASOPHIL [4]: 0 CELLS/uL
- ABSOLUTE EOSINOPHIL [4]: 26.67 CELLS/uL
- ABSOLUTE LYMPHOCYTE [4]: 5180 CELLS/uL
- ABSOLUTE MONOCYTE [4]: 42.67 CELLS/uL
- ABSOLUTE SEGMENTED NEUTROPHIL [4]: 217.33 CELLS/uL
- BASOPHIL [4]: 0%
- EOSINOPHIL [4]: 0.67%
- ERYTHROCYTE COUNT [4]: 5.12 x10E6/uL
- HEMATOCRIT [4]: 32.83%
- HEMOGLOBIN [4]: 12.5 G/DL
- LEUKOCYTE COUNT [4]: 5.47 x10E3/uL
- LYMPHOCYTE [4]: 94.33%
- MEAN CORPUSCULAR HEMOGLOBIN [4]: 24.47 pg
- MEAN CORPUSCULAR HEMOGLOBIN CONCENTRATION [4]: 38.1 G/DL
- MEAN CORPUSCULAR VOLUME [4]: 64.27 fL
- MONOCYTE [4]: 1%
- NEUTROPHIL [4]: 4%
- NUCLEATED RED BLOOD CELLS [4]: 0.33 /100WBC
- PLATELET COUNT [4]: 1671.33 x10E3/uL
- ALANINE AMINOTRANSFERASE [4]: 42.33 u/L
- ALBUMIN [4]: 4.27 G/DL
- ALKALINE PHOSPHATASE [4]: 328.67 u/L
- ASPARTATE AMINOTRANSFERASE [4]: 67 u/L
- BLOOD UREA NITROGEN [4]: 15 mg/dL
- CARBON DIOXIDE [4]: 24.33 mmol/L
- CHLORIDE [4]: 107.67 MEQ/L
- CHOLESTEROL [4]: 77.67 mg/dL
- CREATINE PHOSPHOKINASE [4]: 193.33 u/L
- CREATININE [4]: 0.25 mg/dL
- GLUCOSE [4]: 163.33 mg/dL
- LACTATE DEHYDROGENASE [4]: 101 u/L
- LIPASE [4]: 12 u/L
- PHOSPHORUS [4]: 11.77 mg/dL
- POTASSIUM [4]: 6.53 MEQ/L
- SODIUM [4]: 146.7 MEQ/L
- TOTAL BILIRUBIN [4]: 0.2 mg/dL
- TOTAL PROTEIN [4]: 5.87 G/DL
- URIC ACID [4]: 1.8 mg/dL
